Measured values as given in patent publication EP0322391A1, “New phenylalkylamine derivatives” (priority 1987, dated 1989).
Like-named read-outs stand apart in the source and are kept apart here.

Tested on: OTMN-induced tremor in rat
Assay: Potentiation of oxotremorine (OTMN)-induced tremor in rat (potentiation of cholinergic responses)
Assay type: in vivo
Conditions: for minimal effective dose: Rattus norvegicus, ip, read-out: Potentiation of OTMN-induced tremor in rat
Method: Potentiation of cholinergic responses
Male rats (Sprague Dawley Alab Laboratorietjänst AB, Sollentuna, Sweden) weighing 150-180 g, 35-40 days of age, were used. The animals were allowed free access to food (R3, Ewos AB, Södertälje, Sweden) and water until the start of the experiments. The test compounds were injected intraperitoneally (i.p.) 30 minutes before injection of the muscarine agonist oxotremorine (OTM) into the neck (s.c.). Tremor intensity was assessed visually for a 60 minutes period following the injection of OTMN in rat housed in Macrolon cages (25x25x30 cm) (three per cage). The threshold dose of OTMN for eliciting tremor in rat is about 200 µg/kg.
Tremor intensity was scored using the following rating scale: 0 = no tremor; 1 = slight tremor (moderate, discontinuous tremor; 2 = strong tremor (intense, continuous tremor involving the whole body). The animals were scored 5, 10, 15, 30 and 60 minutes after injection of OTMN. The tremor was scored for a period of 30 seconds.
The values for each observation were summed over the entire observation period (5-60 minutes) and their median values for each group were calculated (total median score). Mann-Whitney U-test (two-tailed) was used to determine differences between the control OTMN group and test groups receiving the compounds + OTMN. […].
The lowest dose causing a significant (p<0.05) potentiation of the OTMN response was determined from log-dose response curves.

[1] = lowest dose causing a significant (p<0.05) potentiation of the OTMN response, from log-dose response curves, test compound i.p. 30 minutes before oxotremorine s.c., male Sprague Dawley rats, tremor scored 5-60 minutes

SMILES	minimal effective dose [1]	further results
CCC(N)CC(=O)C(C)(C)Cc1ccc(F)cc1.O=C(O)C(=O)O (racemic) [Example 1, 5-amino-2,2-dimethyl-1-(4-fluorophenyl)-3-heptanone oxalate]	0.63 mg/kg	–
CC(N)C(=O)OC(C)(C)Cc1ccc(Cl)cc1 (centres unmarked) [Alaproclate, alaproclate, reference compound]	–	minimal effective dose: 5 mg/kg
CCC(N)CC(=O)C(C)(C)Cc1ccc(F)cc1 (centres unmarked) [Example 5, 5-amino-2,2-dimethyl-1-(4-fluorophenyl)-3-heptanone]	0.63 mg/kg	–
CCC(N)CC(=O)C(C)(C)Cc1ccc(F)cc1 (centres unmarked) [Example 6, 5-amino-2,2-dimethyl-1-(4-fluorophenyl)-3-heptanone]	–	Potentiation of OTMN-induced tremor in rat [1]: 0.63 mg/kg
CCC(N)CC(O)C(C)(C)Cc1ccc(F)cc1.O=C(O)C(=O)O (centres unmarked) [Example 7, 5-Amino-2,2-dimethyl-1-(4-fluorophenyl)-3-heptanol oxalate]	2.5 mg/kg	–
CC(C)C(N)CC(O)C(C)(C)Cc1ccc(F)cc1.O=C(O)C(=O)O (centres unmarked) [Example 8, 5-Amino-1-(4-fluorophenyl)-2,2,6-trimethyl-3-heptanol oxalate]	10 mg/kg	–
CCCCCC(N)CC(O)C(C)(C)Cc1ccc(F)cc1.O=C(O)C(=O)O (centres unmarked) [Example 9, 5-Amino-2,2-dimethyl-1-(4-fluorophenyl)-3-decanol oxalate]	5 mg/kg	–
CC(C)C(N)CC(=O)C(C)(C)Cc1ccc(F)cc1.O=C(O)C(=O)O (centres unmarked) [Example 12, 5-Amino-1-(4-fluorophenyl)-2,2,6-trimethyl-3-heptanone oxalate]	2.5 mg/kg	–
